Assay [1] addresses PSME1 and PSME2 (PA28 complex) (Homo sapiens, UniProt Q06323). Briefly: SEC-MS elution profile. It counts as cell-based. More on the design: endogenous in cells; host or cells: 22Rv1. The settings on record: 22Rv1 cells, 20 μM, 3 h. The protocol: Sample preparation: Cells (adherent: 15 cm dishes, suspension: 2 million cells/mL) were treated with electrophilic probes in situ for indicated times and concentrations (elaborated fragments: 20 μM, 3 h), washed with ice-cold PBS, and flash frozen in liquid nitrogen. Cell pellets were lysed by sonication (8 pulses, 40% power) in 600 μL ice-cold PBS supplemented with cOmplete protease inhibitors (1 tablet/10 mL of PBS), ultracentrifuged for 20 min at 100,000 g, then normalized to a standardized concentration (typically 1.5 to 2.5 mg/mL). Clarified lysate was injected into a Superdex 200 Increase 10/300 GL column attached to an AKTA pure FPLC system. Proteins were fractionated using an isocratic gradient (PBS) running at 0.5 mL/min into 5 fractions 2 mL wide, beginning at 8 mL and ending at 18 mL. Eluate was collected into 15 mL tubes containing 12 mL of acetone at 4C. After completion of one set of 5 fractions, the above protocol was repeated a second time for the remaining 5 fractions. Proteins were precipitated overnight at −20 C, then spun at 4500 g for 20 minutes, yielding a white protein pellet. Acetone/PBS mixture was decanted off the pellets, which were dried at room temperature and then resuspended in 125 μL of 8 M urea, 10 mM DTT in 100 mM EPPS for 15 minutes at 65 degrees, followed by probe sonication to complete resuspension. 6.25 μL of 500 mM iodoacetamide was added to samples for alkylation (30 minutes, 37 C), followed by dilution with 370 μL of 100 mM EPPS, and addition of 2 μg trypsin per fraction, and digestion overnight at 37 C. 70 μL of tryptic digest was aliquoted into a clean microcentrifuge tube, followed by 30 μL of dry acetonitrile and 4.5 μL (5 mg/256 μL) of TMT tag in dry acetonitrile. Samples were labeled at room temperature for 75 minutes, then quenched with 6 μL of 5% hydroxylamine for 15 minutes and acidified with 5 μL of formic acid. The set of 10 samples were then combined into a single tube and evaporated by speed vac. Samples were then desalted and fractionated before analysis by mass spectrometry.
Data processing: Fractional distributions for each peptide-spectra match with a total TMT reporter ion intensity were calculated by dividing the reporter ion intensity for each TMT channel by the summed intensity across the 5 TMT channels corresponding to a single treatment condition (Equation 1). Protein-level SEC elution profiles were then generated by averaging together all unique peptides with a summed reporter ion intensity >5,000. Two unique peptide sequences were required per-protein. Bar graph elution profiles are represented as the mean±standard error of the mean across all replicates. Euclidean distances (SE shift scores, Equation 2) were calculated using the average elution profile for each protein across replicates, combined by treatment condition and cell line. Figures reporting mean elution times used Equation 3 for calculation.
Filtering of SEC-MS data: Replicates were combined based on cell line and treatment condition (probe, concentration, duration) by averaging SEC elution profiles for each protein across all experiments. A coefficient of variation (CV) filter was applied by taking the average the per-fraction CV across all 5 fractions. Proteins with a CV≥0.7 were removed from analysis.

Assay [2] has as its system DDX39A_C86. Briefly: IA-DTB cysteine engagement. The assay is classed as binding, human. The settings on record: 22Rv1 cells, 20 μM probe, 1 h, relative to DMSO. Here is the method: Sample preparation: Cells (adherent: 15 cm dishes, suspension: 2 million cells/mL) were treated with electrophilic probes in situ for indicated times and concentrations, washed with ice-cold PBS, and flash frozen in liquid nitrogen. Cell pellets were lysed by sonication (8 pulses, 40% power) in 500 μL ice-cold PBS supplemented with cOmplete protease inhibitors (1 tablet/10 mL of PBS). Whole cell lysates protein content was measured using a standard DC protein assay (Bio-Rad) and 500 μL (2 mg/mL protein content) were treated with 5 μL of 10 mM 1A-DTB (in DMSO) for 1 h at ambient temperature with occasional vortexing. Samples were methanol-chloroform precipitated with the addition of 500 μL ice-cold MeOH and 200 μL CHCl3, vortexed, and centrifuged (10 min, 10,000 g). Without disrupting the protein disk, both top and bottom layers were aspirated and the protein disk was washed with 1 mL ice-cold MeOH and centrifuged (10 min, 10,000 g). The pellets were allowed to air dry, and then re-suspended in 90 μL buffer (9 M urea, 10 mM DTT, 50 mM TEAB pH 8.5). Samples were reduced by heating at 65 C for 20 minutes and water bath sonicated as needed to resuspend the protein pellets, followed by alkylation via addition of 10 μL (500 mM) iodoacetamide and incubated at 37 C for 30 min with shaking. Samples were briefly centrifuged, and probe sonicated once more to ensure complete resuspension, and then diluted with 300 μL buffer (50 mM TEAB pH 8.5) to reach final concentration of 2 M urea. Trypsin (4 μL of 0.25 μg/μL in trypsin resuspension buffer with 25 mM CaCl2)) was added to each sample and digested at 37 C for 2 h to overnight. Digested samples were then diluted with 300 μL wash buffer (50 mM TEAB pH 8.5, 150 mM NaCl, 0.2% NP-40) containing streptavidin-agarose beads (50 μL of 50% slurry in wash buffer) and were rotated at room temperature for 2 hours. Enriched samples were pelleted by centrifugation (2000 g, 2 min) and transferred to BioSpin columns and washed (3×1 mL wash buffer, 3×1 mL PBS, 3×1 mL water). Enriched peptides were eluted by 300 μL 50% acetonitrile with 0.1% formic acid and eluate was evaporated to dryness via speedvac. IA-DTB labeled and enriched peptides were resuspended in 100 μL EPPS buffer (200 mM, pH 8.0) with 30% acetonitrile, vortexed, and water bath sonicated. Samples were TMT labeled with 3 μL of corresponding TMT tag (5 mg tag resuspended in 256 μL acetonitrile), vortexed, and incubated at room temperature for 1 hour. […]
Data processing: Cysteine engagement ratios (probe vs DMSO) were calculated for each peptide-spectra match by dividing each TMT reporter ion intensity by the average intensity for the channels corresponding to DMSO treatment. […]

Assay [3] addresses T1, DDX39B_C87 (Homo sapiens, UniProt Q13838).
T1 construct: endogenous in cells; host or cells: 22Rv1
The assay can be described thus: IA-DTB cysteine engagement. The assay is classed as binding. To be noted: 22Rv1 cells, 20 μM probe, 1 h, relative to DMSO. Here is the method:
Sample preparation: Cells (adherent: 15 cm dishes, suspension: 2 million cells/mL) were treated with electrophilic probes in situ for indicated times and concentrations, washed with ice-cold PBS, and flash frozen in liquid nitrogen. Cell pellets were lysed by sonication (8 pulses, 40% power) in 500 μL ice-cold PBS supplemented with cOmplete protease inhibitors (1 tablet/10 mL of PBS). Whole cell lysates protein content was measured using a standard DC protein assay (Bio-Rad) and 500 μL (2 mg/mL protein content) were treated with 5 μL of 10 mM 1A-DTB (in DMSO) for 1 h at ambient temperature with occasional vortexing. Samples were methanol-chloroform precipitated with the addition of 500 μL ice-cold MeOH and 200 μL CHCl3, vortexed, and centrifuged (10 min, 10,000 g). Without disrupting the protein disk, both top and bottom layers were aspirated and the protein disk was washed with 1 mL ice-cold MeOH and centrifuged (10 min, 10,000 g). The pellets were allowed to air dry, and then re-suspended in 90 μL buffer (9 M urea, 10 mM DTT, 50 mM TEAB pH 8.5). Samples were reduced by heating at 65 C for 20 minutes and water bath sonicated as needed to resuspend the protein pellets, followed by alkylation via addition of 10 μL (500 mM) iodoacetamide and incubated at 37 C for 30 min with shaking. Samples were briefly centrifuged, and probe sonicated once more to ensure complete resuspension, and then diluted with 300 μL buffer (50 mM TEAB pH 8.5) to reach final concentration of 2 M urea. Trypsin (4 μL of 0.25 μg/μL in trypsin resuspension buffer with 25 mM CaCl2)) was added to each sample and digested at 37 C for 2 h to overnight. Digested samples were then diluted with 300 μL wash buffer (50 mM TEAB pH 8.5, 150 mM NaCl, 0.2% NP-40) containing streptavidin-agarose beads (50 μL of 50% slurry in wash buffer) and were rotated at room temperature for 2 hours. Enriched samples were pelleted by centrifugation (2000 g, 2 min) and transferred to BioSpin columns and washed (3×1 mL wash buffer, 3×1 mL PBS, 3×1 mL water). Enriched peptides were eluted by 300 μL 50% acetonitrile with 0.1% formic acid and eluate was evaporated to dryness via speedvac. IA-DTB labeled and enriched peptides were resuspended in 100 μL EPPS buffer (200 mM, pH 8.0) with 30% acetonitrile, vortexed, and water bath sonicated. Samples were TMT labeled with 3 μL of corresponding TMT tag (5 mg tag resuspended in 256 μL acetonitrile), vortexed, and incubated at room temperature for 1 hour. TMT labeling was quenched with the addition of hydroxylamine (5 μL 5% solution in H2O) and incubated for 15 minutes at room temperature. Samples were then acidified with 5 μL formic acid, combined and dried using a SpeedVac. Samples were desalted via Sep-Pak and then high pH fractionated.
Data processing: Cysteine engagement ratios (probe vs DMSO) were calculated for each peptide-spectra match by dividing each TMT reporter ion intensity by the average intensity for the channels corresponding to DMSO treatment. Peptide-spectra matches were then grouped based on protein ID and residue number (e.g., PSME1 C22), excluding peptides with summed reporter ion intensities for the DMSO channels <10,000, coefficient of variation for DMSO channels >0.5, and non-tryptic peptide sequences. TMT reporter ion intensities were normalized to the median summed signal intensity across channels.
Filtering of cysteine data: Replicates were combined based on cell line and treatment condition (probe, concentration, duration) by averaging cysteine engagement ratios across all experiments.

Sequence of PSME1 and PSME2 (PA28 complex) (Q06323 whole entry, the tested form may be a part, one chain of several): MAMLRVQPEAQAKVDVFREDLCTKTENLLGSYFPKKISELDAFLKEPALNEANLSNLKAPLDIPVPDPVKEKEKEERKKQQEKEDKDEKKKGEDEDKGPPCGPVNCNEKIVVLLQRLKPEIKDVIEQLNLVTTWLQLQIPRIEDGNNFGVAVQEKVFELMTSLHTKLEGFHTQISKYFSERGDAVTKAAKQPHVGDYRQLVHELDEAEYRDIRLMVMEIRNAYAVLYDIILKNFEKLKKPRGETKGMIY
T1 sequence (Q13838 whole entry): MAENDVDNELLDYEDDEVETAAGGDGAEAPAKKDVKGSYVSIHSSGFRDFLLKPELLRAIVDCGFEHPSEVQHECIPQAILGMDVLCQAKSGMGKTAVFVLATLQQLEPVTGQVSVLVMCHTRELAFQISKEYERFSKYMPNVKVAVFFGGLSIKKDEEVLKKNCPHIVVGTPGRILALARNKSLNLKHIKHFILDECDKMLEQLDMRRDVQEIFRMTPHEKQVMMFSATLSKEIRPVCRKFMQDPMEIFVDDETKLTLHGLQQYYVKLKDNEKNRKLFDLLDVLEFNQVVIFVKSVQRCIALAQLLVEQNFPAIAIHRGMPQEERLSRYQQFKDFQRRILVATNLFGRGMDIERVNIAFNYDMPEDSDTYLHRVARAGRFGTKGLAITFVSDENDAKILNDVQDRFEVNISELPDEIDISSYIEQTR

`CC#CC(=O)N1C[C@H](c2ccc(Br)cc2)[C@@H]1C(=O)Nc1cccc2cccnc12` [MY-45B, (2R,3S)-3-(4-bromophenyl)-1-(but-2-ynoyl)-N-(quinolin-8-yl)azetidine-2-carboxamide]: the “SEC migration shift of PSME1 and PSME2” value in assay [1] was “caused the expected SEC migration shifts”.
Turning to `C=CC(=O)N1C[C@H](c2ccc(Br)cc2)[C@H]1C(=O)Nc1cccc2cccnc12` [MY-3A, (2S,3S)-1-acryloyl-3-(4-bromophenyl)-N-(quinolin-8-yl)azetidine-2-carboxamide], in assay [1], the “SEC migration shift of PSME1 and PSME2” value is on record as “None of the other azetidine acrylamide stereoisomers”. Besides, in assay [2], the “% engagement DDX39A_C86” value turned out to be 23.5%. In assay [3], the “% engagement DDX39B_C87” value stood at 23.5%.
As for `C=CC(=O)N1C[C@@H](c2ccc(Br)cc2)[C@H]1C(=O)Nc1cccc2cccnc12` [MY-1A, (2S,3R)-1-acryloyl-3-(4-bromophenyl)-N-(quinolin-8-yl)azetidine-2-carboxamide], the “SEC migration shift of PSME1 and PSME2” value in assay [1] was “None of the other azetidine acrylamide stereoisomers”. Also, the “% engagement DDX39A_C86” value in assay [2] was 44.5%. Further, in assay [3], the “% engagement DDX39B_C87” value was determined as 44.5%.
Regarding `C=CC(=O)N1C[C@H](c2ccc(Br)cc2)[C@@H]1C(=O)Nc1cccc2cccnc12` [MY-1B, (2R,3S)-1-acryloyl-3-(4-bromophenyl)-N-(quinolin-8-yl)azetidine-2-carboxamide], the “SEC migration shift of PSME1 and PSME2” value in assay [1] is reported as “decreased size shift”. For the same compound, in assay [2], the “% engagement DDX39A_C86” value was 37%. The “% engagement DDX39B_C87” value in assay [3] amounted to 37%.
Take `C=CC(=O)N1C[C@H](c2ccc(Br)cc2)[C@H]1C(=O)Nc1cccc2cccnc12` [MY-3B, (2S,3S)-1-acryloyl-3-(4-bromophenyl)-N-(quinolin-8-yl)azetidine-2-carboxamide]: the “SEC migration shift of PSME1 and PSME2” value in assay [1] was “None of the other azetidine acrylamide stereoisomers”. Also, in assay [2], the “% engagement DDX39A_C86” value is listed as 67.5%. The “% engagement DDX39B_C87” value in assay [3] was 67.5%.

(Values after US20250034216A1, “STEREOSELECTIVE COVALENT LIGANDS FOR ONCOGENIC AND IMMUNOLOGICAL PROTEINS” (The Scripps Research Institute, priority 2021, published 2025).)
